Laboratory results reported in patent publication US10106833B2, “Methods and compounds for identifying glycosyltransferase inhibitors” (priority 2012, dated 2018).
pIC50, pKd, pKi: −log10 of the molar value.

Tests used:
E. faecalis PBP2a = E. faecalis PBP2a (Enterococcus faecalis, UniProt Q837Z4); test: Displacement of probe compound S16 (CMG121) from E. faecalis PBP2a, decrease in fluorescence polarization on addition of test compound; assay type: binding; conditions: read-out: E. faecalis PBP2a Kd; FIG. 2; FP displacement; 75 nM probe S16, 0.38-0.46 uM PBP2a, 10 mM TRIS pH 8.0, 100 mM NaCl, 0° C. 30 min
Description: (§1) Solution containing 10 mM TRIS (pH=8.0), 100 mM NaCl, 0.3% DMSO, 75 nM S16, and bacterial glycosyltransferase (E. coli PBP1b c=2.2 uM; E. faecalis PBP2a c=5.1 uM; S. aureus SgtB c=2.1 uM) were allowed to equilibrate for 30 min at 0° C. and then serially diluted (1/1 dilutions) into buffer containing 10 mM TRIS (pH=8.0), 100 mM NaCl, 0.3% DMSO, and 75 nM S16. After equilibration at 0° C. for 30 min the 20 μL of the solutions were transferred to a black 384 well plate (Corning NBS Low Volume) and fluorescence polarization (FP, ex: 480 nm; em: 535 nm) was measured using a Perkin Elmer Envision microplate reader. Each series was performed in duplicate and the data was plotted FP vs. concentration of enzyme. For determination of the KD, the average FP values were converted to fluorescence anisotropy and fitted to the standard equation describing an equilibrium L+E<->LE (L=ligand; E=enzyme; LE=ligand enzyme complex) using GraphPad Prism 5.0 (GraphPad Software, Inc.; La Jolla, Calif., USA). The KD values for probe S16 are: E. coli PBP1b: 0.15; E. faecalis PBP2a: 0.38; […]
(§2) For determination of the Ki, the average FP values were first converted to fluorescence anisotropy.

S. aureus SgtB [1] = molecular target: S. aureus SgtB (Staphylococcus aureus, UniProt Q99T05); test: Displacement of probe compound S16 (CMG121) from S. aureus SgtB, decrease in fluorescence polarization on addition of test compound; assay type: binding; conditions: read-out: S. aureus SgtB Kd; FIG. 2; FP displacement; 75 nM probe S16, 0.2-0.25 uM SgtB, 10 mM TRIS pH 8.0, 100 mM NaCl, 0° C. 30 min
Description: Solution containing 10 mM TRIS (pH=8.0), 100 mM NaCl, 0.3% DMSO, 75 nM S16, and bacterial glycosyltransferase (E. coli PBP1b c=2.2 uM; E. faecalis PBP2a c=5.1 uM; S. aureus SgtB c=2.1 uM) were allowed to equilibrate for 30 min at 0° C. and then serially diluted (1/1 dilutions) into buffer containing 10 mM TRIS (pH=8.0), 100 mM NaCl, 0.3% DMSO, and 75 nM S16. After equilibration at 0° C. for 30 min the 20 μL of the solutions were transferred to a black 384 well plate (Corning NBS Low Volume) and fluorescence polarization (FP, ex: 480 nm; em: 535 nm) was measured using a Perkin Elmer Envision microplate reader. Each series was performed in duplicate and the data was plotted FP vs. concentration of enzyme. For determination of the KD, the average FP values were converted to fluorescence anisotropy and fitted to the standard equation describing an equilibrium L+E<->LE (L=ligand; E=enzyme; LE=ligand enzyme complex) using GraphPad Prism 5.0 (GraphPad Software, Inc.; La Jolla, Calif., USA). The KD values for probe S16 are: E. coli PBP1b: 0.15; E. faecalis PBP2a: 0.38;
S. aureus SgtB: 0.18. Probe CMG121 (75 nM) is displaced from S. aureus SgtB (0.2 μM) by addition of either moenomycin or the weaker PGT inhibitor disaccharide S15, as evidenced by reduction of FP. […]
as §2

E. coli PBP1b [2] = molecular target: T1, E. coli PBP1b (Escherichia coli, UniProt P02919); test: Displacement of probe compound S16 (CMG121) from E. coli PBP1b, decrease in fluorescence polarization on addition of test compound; assay type: binding
Description: as §1, §2

[3] = test system: bacterial glycosyltransferase (E. coli PBP1b; E. faecalis PBP2a; S. aureus SgtB); test: Assay validation: displacement of probe compound from enzyme (fluorescence polarization); assay type: binding; conditions: 75 nM probe S16; test compound up to ca. 200 uM
Description: (§3) To equilibrated solutions containing 10 mM TRIS (pH=8.0), 100 mM NaCl, 75 nM S16, and bacterial glycosyltransferase (E. coli PBP1b c=0.1-0.15 uM; E. faecalis PBP2a c=0.38-0.46 uM; S. aureus SgtB c=0.2-0.25 uM) was added the test compound in DMSO or DMSO/H2O solutions (stock solutions were typically 2 mM) to obtain a final concentration of test compound of ca. 200 uM. These solutions were serially diluted (1/1 dilutions) into buffer containing 10 mM TRIS (pH=8.0), 100 mM NaCl, 75 nM Probe CMG121, and bacterial glycosyl transferase (E. coli PBP1b c=0.1-0.15 uM; E. faecalis PBP2a c=0.38-0.46 uM; S. aureus SgtB c=0.2-0.25 uM). After equilibration at 0° C. for 30 min the 20 μL of the solutions were transferred to a black 384 well plate (Corning NBS Low Volume) and fluorescence polarization (FP, ex: 480 nm; em: 535 nm) was measured using a Perkin Elmer Envision microplate reader. Each series was performed in duplicate and the data was plotted FP vs. concentration of test compound.

S. aureus SgtB [4] = molecular target: T2, S. aureus SgtB (Staphylococcus aureus, UniProt Q93Q23); test: In vitro PGT inhibition, PG formation from 14C-lipid II; assay type: biochemical; conditions: S. aureus SgtB 50 nM, lipid II 4 μM
T2 sequence (Q93Q23 1-269): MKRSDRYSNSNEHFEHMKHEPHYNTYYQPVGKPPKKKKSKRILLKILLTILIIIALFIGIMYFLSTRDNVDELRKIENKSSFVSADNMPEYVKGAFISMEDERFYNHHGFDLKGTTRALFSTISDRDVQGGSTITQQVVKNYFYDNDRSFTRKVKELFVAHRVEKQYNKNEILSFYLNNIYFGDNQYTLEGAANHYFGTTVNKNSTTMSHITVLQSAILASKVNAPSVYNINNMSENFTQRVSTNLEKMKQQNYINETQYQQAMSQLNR
Description: (§4) A solutions of S. aureus SgtB (50 nM) in 12.5 mM HEPES (pH=7.5), 2 mM MnCl2, and 250 μM tween-80 (8 μL) were incubated with DMSO solutions containing the inhibitor of interest in different concentrations (1 μL) for 20 min. Then ^14C-labelled lipid II (1 μL, 40 μM, ^14C/^12C 1/3) was added and the polymerization reaction was allowed to proceed for 25 min at room temperature. The reaction was quenched with 10 μL of a solution of moenomycin (1 μM) in 10% triton-X reduced and the remaining lipid II was separated from peptidoglycan (PG) using paper strip chromatography (isobutyric acid/1M NH4OH 5/3). Using a scintillation counter the ratio of radioactivity in PG to total radioactivity was determined and plotted vs. inhibitor concentration. IC50s were determined using the curve fitting program GraphPad Prism 5.0 (GraphPad Software, Inc.; La Jolla, Calif., USA).

S. aureus SgtB [5] = test: Fluorescence polarization probe competition (Ki); assay type: binding; conditions: probe CMG121 75 nM, S. aureus SgtB 0.2 μM; read-out: Ki (displacement of probe CMG121)
Description: as §3, with “Each series was performed in duplicate and the data was plotted FP vs. concentration of test compound.” left out
A black 384 well plate (Corning NBS Low Volume No. 3820) was filled (10 μL per well) with an equilibrated solution containing 10 mM TRIS (pH=8.0), 100 mM NaCl, 75 nM disaccharide S15, and 1.0-1.5 μM S. aureus SgtB (depending on protein batch). […] The plate was incubated at 4° C. for 30 min and read with an Perkin Elmer EnVision microplate reader as described above. […]
For determination of the Ki, the average FP values were first converted to fluorescence anisotropy. […]

E. coli PBP1b [6] = molecular target: T1, E. coli PBP1b; test: In vitro PGT inhibition, PG formation from 14C-lipid II; assay type: biochemical; conditions: E. coli PBP1b 50 nM, lipid II 4 μM
Description: as §4
Solutions of the PGT (50 nM) in 50 mM HEPES (pH=7.5), 10 mM CaCl2, and […] PenG (8 μL) were incubated with DMSO solutions containing the inhibitor of interest in different concentrations (1 μL) for 20 min. Then ^14C-labelled lipid II (1 μL, 40 μM, ^14C/^12C 1/3) was added and the polymerization reaction was allowed to proceed for 25 min at room temperature. The reaction was quenched and processed as described above.

Gram-positive organisms = conditions: against Gram-positive organisms; cited from earlier work

T1 sequence (P02919 whole entry): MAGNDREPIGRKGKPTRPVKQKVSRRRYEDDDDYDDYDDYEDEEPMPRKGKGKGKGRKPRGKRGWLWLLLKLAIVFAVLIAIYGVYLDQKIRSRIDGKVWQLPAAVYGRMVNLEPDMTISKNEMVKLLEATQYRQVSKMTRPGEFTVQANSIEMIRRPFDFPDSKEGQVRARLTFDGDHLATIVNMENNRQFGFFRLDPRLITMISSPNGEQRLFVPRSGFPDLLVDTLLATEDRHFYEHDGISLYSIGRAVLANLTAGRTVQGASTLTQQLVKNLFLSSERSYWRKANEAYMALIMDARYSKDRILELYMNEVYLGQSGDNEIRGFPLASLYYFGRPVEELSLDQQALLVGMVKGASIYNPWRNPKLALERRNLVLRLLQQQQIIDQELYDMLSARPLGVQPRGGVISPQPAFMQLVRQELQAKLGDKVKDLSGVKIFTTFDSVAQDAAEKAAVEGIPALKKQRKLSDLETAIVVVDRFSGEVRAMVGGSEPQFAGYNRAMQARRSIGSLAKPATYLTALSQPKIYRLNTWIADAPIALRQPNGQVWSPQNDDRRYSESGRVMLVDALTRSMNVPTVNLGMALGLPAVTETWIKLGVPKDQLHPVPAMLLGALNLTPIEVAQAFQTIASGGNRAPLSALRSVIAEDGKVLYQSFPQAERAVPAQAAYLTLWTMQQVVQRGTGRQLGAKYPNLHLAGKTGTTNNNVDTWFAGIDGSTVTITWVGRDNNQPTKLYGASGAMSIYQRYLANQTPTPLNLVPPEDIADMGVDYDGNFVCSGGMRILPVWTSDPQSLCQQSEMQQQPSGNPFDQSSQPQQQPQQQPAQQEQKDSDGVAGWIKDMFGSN
Sequence of E. faecalis PBP2a (Q837Z4 entry or part of it): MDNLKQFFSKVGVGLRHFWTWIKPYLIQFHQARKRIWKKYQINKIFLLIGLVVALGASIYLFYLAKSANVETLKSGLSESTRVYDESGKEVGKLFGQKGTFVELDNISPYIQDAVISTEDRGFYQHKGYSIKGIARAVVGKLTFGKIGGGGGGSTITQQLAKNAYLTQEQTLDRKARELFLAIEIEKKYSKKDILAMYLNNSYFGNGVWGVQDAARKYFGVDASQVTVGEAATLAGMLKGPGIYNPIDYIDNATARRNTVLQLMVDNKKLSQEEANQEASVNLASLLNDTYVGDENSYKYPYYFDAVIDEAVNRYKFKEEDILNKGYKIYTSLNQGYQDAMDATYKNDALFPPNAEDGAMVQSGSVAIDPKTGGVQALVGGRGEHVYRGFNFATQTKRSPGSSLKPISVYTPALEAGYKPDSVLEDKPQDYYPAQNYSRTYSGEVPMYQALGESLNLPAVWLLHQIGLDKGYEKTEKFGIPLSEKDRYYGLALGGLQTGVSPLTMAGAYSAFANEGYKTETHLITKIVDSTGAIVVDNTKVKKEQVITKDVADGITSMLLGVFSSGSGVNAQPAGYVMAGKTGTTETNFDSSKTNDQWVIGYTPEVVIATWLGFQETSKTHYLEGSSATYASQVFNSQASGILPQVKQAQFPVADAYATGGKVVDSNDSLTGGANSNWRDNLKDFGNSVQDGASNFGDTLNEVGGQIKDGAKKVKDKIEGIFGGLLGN

Compound: C=C(C/C=C(\C)CCC=C(C)C)CCC(C)(C)/C=C/CC/C(C)=C\CO[C@H](COP(=O)(O)O[C@H]1O[C@H](C(N)=O)[C@@](C)(O)[C@H](OC(N)=O)[C@H]1O[C@@H]1O[C@H](CO[C@@H]2O[C@H](CO)[C@@H](O)[C@H](O)[C@H]2O)[C@@H](O[C@@H]2O[C@H](C)[C@@H](O[C@@H]3O[C@H](C(=O)NC4=C(O)CCC4=O)[C@H](O)[C@H](O)[C@H]3O)[C@H](O)[C@H]2NC(C)=O)[C@H](O)[C@H]1NC(C)=O)C(=O)O [Moenomycin A]
- pKd (E. faecalis PBP2a): 6.02
- pKd (S. aureus SgtB [1]): 5.96
- pKd (E. coli PBP1b [2]; read-out: E. coli PBP1b Kd, FIG. 2, FP displacement, 75 nM probe S16, 0.1-0.15 uM PBP1b, 10 mM TRIS pH 8.0, 100 mM NaCl, 0° C. 30 min): 5.41

Compound: CCCCCCCCCCCCO[C@@H]1O[C@H](CO)[C@@H](O[C@H]2O[C@H](CO)[C@@H](O)[C@H](O)[C@H]2O)[C@H](O)[C@H]1O [dodecyl-β-D-maltoside]
- Displacement of the probe compound (change in fluorescence polarization) on addition of test compound [3]: does not displace

Compound: C=C(C/C=C(\C)CCC=C(C)C)CCC(C)(C)/C=C/CC/C(C)=C\CO[C@H](COP(=O)(O)O[C@H]1O[C@H](C(N)=O)[C@@](C)(O)[C@H](OC(N)=O)[C@H]1O[C@@H]1O[C@H](CO[C@@H]2O[C@H](CO)[C@@H](O)[C@H](O)[C@H]2O)[C@@H](O[C@@H]2O[C@H](C)[C@@H](O[C@@H]3O[C@H](C(=O)NC4=C(O)CCC4=O)[C@H](O)[C@H](O)[C@H]3O)[C@H](O)[C@H]2NC(C)=O)[C@H](O)[C@H]1NC(C)=O)C(=O)O [moenomycin A]
- Displacement of the probe compound (change in fluorescence polarization) on addition of test compound [3]: decrease in fluorescence polarization
- pIC50 (S. aureus SgtB [4]): 8.22
- pKi (S. aureus SgtB [5]): 6.19
- pIC50 (E. coli PBP1b [6]): 7.92
- Potency relative to vancomycin (Gram-positive organisms): 10-1000 times

Compound: CC(=O)N[C@H]1[C@H](O[C@H]2[C@H](O)[C@@H](NC(C)=O)[C@H](O[C@H]3[C@@H](OP(=O)(O)OC[C@@H](OC/C=C(/C)CCC=C(C)C)C(=O)O)O[C@H](C(N)=O)[C@@](C)(O)[C@@H]3OC(N)=O)O[C@@H]2CO[C@@H]2O[C@H](CO)[C@@H](O)[C@H](O)[C@H]2O)O[C@H](C)[C@@H](O[C@@H]2O[C@H](C(=O)NC3=C(O)CCC3=O)[C@H](O)[C@H](O)[C@H]2O)[C@@H]1O [neryl-Moenomycin A (n-MmA), neryl-moenomycin A]
- pIC50 (E. coli PBP1b [2]; FIG. 6, printed on the figure showing FP displacement of the probe by neryl-moenomycin A): 6.70

Compound: CC(=O)N[C@H]1[C@H](O[C@H]2[C@H](O)[C@@H](NC(C)=O)[C@H](O[C@H]3[C@@H](OP(=O)(O)OC[C@@H](OC/C=C(/C)CCC=C(C)C)C(=O)O)O[C@H](C(N)=O)[C@@](C)(O)[C@@H]3OC(N)=O)O[C@@H]2CO[C@@H]2O[C@H](CO)[C@@H](O)[C@H](O)[C@H]2O)O[C@H](C)[C@@H](O[C@@H]2O[C@H](C(=O)NC3=C(O)CCC3=O)[C@H](O)[C@H](O)[C@H]2O)[C@@H]1O [neryl-moenomycin A]
- Displacement of the probe compound (change in fluorescence polarization) on addition of test compound [3]: decrease in fluorescence polarization

Compound: CCCCCCCCCCCCCC(=O)OC[C@H](COP(=O)(O)OCC(O)COP(=O)(O)OC[C@@H](COC(=O)CCCCCCCCCCCCC)OC(=O)CCCCCCCCCCCCC)OC(=O)CCCCCCCCCCCCC (stereo partly drawn) [tetramystryl cardiolipin]
- Displacement of the probe compound (change in fluorescence polarization) on addition of test compound [3]: partial displacement

Compound: ZE-farnesyl-moenomycin A
- Displacement of the probe compound (change in fluorescence polarization) on addition of test compound [3]: decrease in fluorescence polarization

Compound: nC12-moenomycin A
- Displacement of the probe compound (change in fluorescence polarization) on addition of test compound [3]: decrease in fluorescence polarization

Compound: nC20-moenomycin A
- Displacement of the probe compound (change in fluorescence polarization) on addition of test compound [3]: decrease in fluorescence polarization
